target: T1, human α1G T-type channels (Homo sapiens, UniProt O43497); assay: T-type calcium channel block, whole cell patch clamp in HEK cells (α1G); assay type: cell-based; conditions: HEK cells, patch clamp, mainly non-inactivated protocol; values above 10 μM shown as 10 μM, below 0.30 μM shown as 0.30 μM; read-out: T-type Calcium Channel Block α1G IC50
T1 construct: expressed in transfected cells; host or cells: HEK 293
Method: T-type calcium channel blocking activity was assayed in human embryonic kidney cells, HEK 293, stably transfected with the T-type calcium channel subunits. Briefly, cells were cultured in Dulbecco's modified eagle medium (DMEM) supplemented with 10% fetal bovine serum, 200 U/ml penicillin and 0.2 mg/ml streptomycin at 37° C. with 5% CO2. At 85% confluency cells were split with 0.25% trypsin/1 mM EDTA and plated at 10% confluency on glass coverslips. […] Fresh DMEM was supplied and the cells transferred to 28° C./5% CO2. Cells were incubated for 1 to 2 days prior to whole cell recording.
Standard patch-clamp techniques were employed to identify blockers of T-type currents. Briefly, previously described HEK cell lines stably expressing human α1G, α1H and α1I T-type channels were used for all the recordings (passage #: 4-20, 37° C., 5% CO2). Whole cell patch clamp experiments were performed using an Axopatch 200B amplifier (Axon Instruments, Burlingame, Calif.) linked to a personal computer equipped with pCLAMP software. Data were analyzed using Clampfit (Axon Instruments) and SigmaPlot 4.0 (Jandel Scientific). To obtain T-type currents, plastic dishes containing semi-confluent cells were positioned on the stage of a ZEISS AXIOVERT S100 microscope after replacing the culture medium with external solution (see below). Whole-cell patches were obtained using pipettes (borosilicate glass with filament, O.D.: 1.5 mm, I.D.: 0.86 mm, 10 cm length), fabricated on a SUTTER P-97 puller with resistance values of ˜5 MΩ (see below for internal solution).
In the non-inactivating protocol, the holding potential is set at −110 mV and with a pre-pulse at −100 mV for 1 second prior to the test pulse at −40 mV for 50 ms.
Test compounds were dissolved in external solution, 0.1-0.01% DMSO. After ˜10 min rest, they were applied by gravity close to the cell using a WPI microfil tubing. The “non-inactivated” pre-pulse was used to examine the resting block of a compound. The “inactivated” protocol was employed to study voltage-dependent block. […] Values are shown in μM and values above 10 μM are simply represented as 10 μM.

T1 sequence (O43497 whole entry): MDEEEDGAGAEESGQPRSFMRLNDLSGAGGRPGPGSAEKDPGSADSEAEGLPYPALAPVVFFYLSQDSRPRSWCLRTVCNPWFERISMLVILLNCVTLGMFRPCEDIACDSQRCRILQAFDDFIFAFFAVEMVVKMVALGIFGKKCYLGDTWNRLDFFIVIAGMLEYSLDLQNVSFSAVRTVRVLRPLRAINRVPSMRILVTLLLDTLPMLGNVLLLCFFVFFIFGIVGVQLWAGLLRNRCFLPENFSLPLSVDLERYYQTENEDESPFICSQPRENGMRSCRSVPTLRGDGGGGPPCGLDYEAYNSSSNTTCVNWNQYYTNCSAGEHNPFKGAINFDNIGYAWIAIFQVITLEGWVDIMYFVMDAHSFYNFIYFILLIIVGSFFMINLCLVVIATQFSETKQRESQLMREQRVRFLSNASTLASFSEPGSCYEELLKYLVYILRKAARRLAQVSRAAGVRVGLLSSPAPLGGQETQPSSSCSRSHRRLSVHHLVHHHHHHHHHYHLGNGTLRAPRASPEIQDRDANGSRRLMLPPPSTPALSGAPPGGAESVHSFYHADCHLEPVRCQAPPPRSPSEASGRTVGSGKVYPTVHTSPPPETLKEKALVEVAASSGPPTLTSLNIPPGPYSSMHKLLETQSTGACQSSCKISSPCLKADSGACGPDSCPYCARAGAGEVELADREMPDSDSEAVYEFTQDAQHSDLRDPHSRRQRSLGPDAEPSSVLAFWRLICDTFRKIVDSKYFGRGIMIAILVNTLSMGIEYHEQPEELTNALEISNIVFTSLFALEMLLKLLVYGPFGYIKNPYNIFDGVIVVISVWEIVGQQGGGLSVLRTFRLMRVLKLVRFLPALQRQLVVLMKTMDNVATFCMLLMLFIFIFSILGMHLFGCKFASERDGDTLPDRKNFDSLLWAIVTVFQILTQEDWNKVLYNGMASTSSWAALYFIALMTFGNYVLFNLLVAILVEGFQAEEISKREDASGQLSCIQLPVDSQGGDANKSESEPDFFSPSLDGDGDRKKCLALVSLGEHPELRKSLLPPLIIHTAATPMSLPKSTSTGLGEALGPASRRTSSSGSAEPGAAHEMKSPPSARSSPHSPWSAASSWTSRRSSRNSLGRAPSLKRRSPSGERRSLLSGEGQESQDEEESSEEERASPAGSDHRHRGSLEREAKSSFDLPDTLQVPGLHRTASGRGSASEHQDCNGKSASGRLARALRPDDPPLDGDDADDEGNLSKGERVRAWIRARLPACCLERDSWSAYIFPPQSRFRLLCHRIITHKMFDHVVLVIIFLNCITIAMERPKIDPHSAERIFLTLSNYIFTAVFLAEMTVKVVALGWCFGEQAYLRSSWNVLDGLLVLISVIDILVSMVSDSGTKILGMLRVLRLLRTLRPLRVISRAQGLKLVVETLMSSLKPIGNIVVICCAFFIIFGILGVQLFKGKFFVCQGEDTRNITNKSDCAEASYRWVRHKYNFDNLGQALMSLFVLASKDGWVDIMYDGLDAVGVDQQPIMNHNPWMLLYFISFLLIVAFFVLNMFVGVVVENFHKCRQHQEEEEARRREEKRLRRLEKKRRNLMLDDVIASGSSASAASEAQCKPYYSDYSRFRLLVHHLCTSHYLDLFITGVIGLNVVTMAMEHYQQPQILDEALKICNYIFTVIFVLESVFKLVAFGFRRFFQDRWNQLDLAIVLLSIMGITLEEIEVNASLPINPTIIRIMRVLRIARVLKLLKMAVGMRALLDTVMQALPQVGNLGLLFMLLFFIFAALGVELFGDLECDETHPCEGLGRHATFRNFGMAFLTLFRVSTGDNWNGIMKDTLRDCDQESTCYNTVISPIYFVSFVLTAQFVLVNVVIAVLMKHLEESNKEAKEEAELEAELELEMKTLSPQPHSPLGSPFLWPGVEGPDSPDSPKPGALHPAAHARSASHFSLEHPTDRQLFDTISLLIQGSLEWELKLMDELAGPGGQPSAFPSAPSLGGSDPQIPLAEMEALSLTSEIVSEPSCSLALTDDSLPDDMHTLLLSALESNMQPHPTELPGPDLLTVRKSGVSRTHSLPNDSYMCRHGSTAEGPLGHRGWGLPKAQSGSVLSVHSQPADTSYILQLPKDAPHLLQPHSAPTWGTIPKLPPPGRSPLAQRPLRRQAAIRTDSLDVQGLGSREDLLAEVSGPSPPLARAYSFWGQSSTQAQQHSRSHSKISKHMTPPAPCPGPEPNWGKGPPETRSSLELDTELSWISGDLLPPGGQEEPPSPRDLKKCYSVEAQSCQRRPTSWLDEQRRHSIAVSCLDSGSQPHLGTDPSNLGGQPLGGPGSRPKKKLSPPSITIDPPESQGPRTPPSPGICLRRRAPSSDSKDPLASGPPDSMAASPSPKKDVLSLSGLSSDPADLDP

SMILES | IC50
CN(CC1CCN(CCNC(=O)CC(C)(C)C)CC1)C(=O)c1cc(F)cc(C(F)(F)F)c1 [Compound 413, N-((1-(2-(3,3-dimethylbutanamido)ethyl)piperidin-4-yl)methyl)-3-fluoro-N-methyl-5-(trifluoromethyl)benzamide] | > 10 µM
NC1(C(=O)N2CCC(CC(=O)Nc3cc(C(F)(F)F)cc(C(F)(F)F)c3)CC2)CC1 [Compound 190, 2-(1-(1-aminocyclopropanecarbonyl)piperidin-4-yl)-N-(3,5-bis(trifluoromethyl)phenyl) acetamide] | > 10 µM
CC(C)(C)C(O)CN1CCC(CC(=O)NCc2ccc3c(c2)CCO3)CC1 (stereo not shown) [Compound 176, N-((2,3-dihydrobenzofuran-5-yl)methyl)-2-(1-(2-hydroxy-3,3-dimethylbutyl)piperidin-4-yl)acetamide] | > 10 µM
Cc1cccc(C)c1NC(=O)CC1CCN(CCNS(=O)(=O)C(C)C)CC1 [Compound 433, N-(2,6-dimethylphenyl)-2-(1-(2-(1-methylethylsulfonamido)ethyl)piperidin-4-yl)acetamide] | > 10 µM
CCS(=O)(=O)NC(CN1CCC(CC(=O)NCc2cc(Cl)cc(Cl)c2)CC1)C(C)(C)C (stereo not shown) [Compound 208, N-(3,5-dichlorobenzyl)-2-(1-(2-(ethylsulfonamido)-3,3-dimethylbutyl)piperidin-4-yl)acetamide] | > 10 µM
CC(C)(C)C(CN1CCC(CC(=O)NC(c2cccc(F)c2)c2cccc(F)c2)CC1)NS(C)(=O)=O (stereo not shown) [Compound 219, N-(bis(3-fluorophenyl)methyl)-2-(1-(3,3-dimethyl-2-(methylsulfonamido)butyl)piperidin-4-yl)acetamide] | > 10 µM
CC(C)(C)OC(=O)NCCN1CCC(CNC(=O)c2ccccc2OC(F)(F)F)CC1 [Compound 55, tert-butyl 2-(4-((2-(trifluoromethoxy)benzamido)methyl)piperidin-1-yl)ethylcarbamate] | > 10 µM
NC1(C(=O)N2CCC(CNC(=O)c3cc(C(F)(F)F)cc(C(F)(F)F)c3)CC2)CCCC1 [Compound 85, N-((1-(1-aminocyclopentanecarbonyl)piperidin-4-yl)methyl)-3,5-bis(trifluoromethyl) benzamide] | > 10 µM
N#CC1CCN(CC(=O)N2CCC(CNC(=O)c3cc(C(F)(F)F)cc(C(F)(F)F)c3)CC2)CC1 [Compound 259, N-((1-(2-(4-cyanopiperidin-1-yl)acetyl)piperidin-4-yl)methyl)-3,5-bis(trifluoromethyl)benzamide] | > 10 µM
CC(C)(C)OC(=O)NCCN1CCC(CNC(=O)c2cccc(OC(C)(C)C)c2)CC1 [Compound 50, tert-butyl 2-(4-((3-tert-butoxybenzamido)methyl)piperidin-1-yl)ethylcarbamate] | 8.97 µM
CC(C)S(=O)(=O)NC(CN1CCC(CC(=O)NCCc2c[nH]c3ccc(F)cc23)CC1)C(C)(C)C (stereo not shown) [Compound 206, 2-(1-(3,3-dimethyl-2-(1-methylethylsulfonamido)butyl)piperidin-4-yl)-N-(2-(5-fluoro-1H-3-yl)ethyl)acetamide] | > 10 µM
O=C(CC1CCN(C(=O)[C@H]2CCCN2)CC1)Nc1cc(C(F)(F)F)cc(C(F)(F)F)c1 [Compound 191, (R)-N-(3,5-bis(trifluoromethyl)phenyl)-2-(1-(pyrrolidine-2-carbonyl)piperidin-4-yl)acetamide] | > 10 µM
CC(C)(C)C(O)CN1CCC(CC(=O)NCc2cccc(OC(F)F)c2)CC1 (stereo not shown) [Compound 175, N-(3-(difluoromethoxy)benzyl)-2-(1-(2-hydroxy-3,3-dimethylbutyl)piperidin-4-yl)acetamide] | > 10 µM

Now those with a lower IC50, led by results:

IC50 | SMILES
< 0.3 µM | CC(C)(C)NC(=O)CN1CCC(CNC(=O)c2cc(Br)cc(OC(F)(F)F)c2)CC1 [Compound 429, 3-bromo-N-((1-(2-(tert-butylamino)-2-oxoethyl)piperidin-4-yl)methyl)-5-(trifluoromethoxy)benzamide]
0.7 µM | O=C(NCC1CCN(C[C@@H]2CCCN2S(=O)(=O)C2CCCC2)CC1)c1cc(F)cc(C(F)(F)F)c1 [Compound 420, (S)-N-((1-((1-(cyclopentylsulfonyl)pyrrolidin-2-yl)methyl)piperidin-4-yl)methyl)-3-fluoro-5-(trifluoromethyl)benzamide]
7.62 µM | CC(C)(C)[C@H](O)C(=O)N1CCC(CNC(=O)c2cc(C(F)(F)F)cc(C(F)(F)F)c2)CC1 [Compound 76, (S)-N-((1-(2-hydroxy-3,3-dimethylbutanoyl)piperidin-4-yl)methyl)-3,5-bis(trifluoromethyl) benzamide]
< 0.3 µM | O=C(NCC1CCN(CCNS(=O)(=O)C2CC2)CC1)c1cc(F)cc(Cl)c1 [Compound 390, 3-chloro-N-((1-(2-(cyclopropanesulfonamido)ethyl)piperidin-4-yl)methyl)-5-fluoro-benzamide]
6.71 µM | CC(C)(O)C(=O)N1CCC(CC(=O)Nc2cc(C(F)(F)F)cc(C(F)(F)F)c2)CC1 [Compound 154, N-(3,5-bis(trifluoromethyl)phenyl)-2-(1-(2-hydroxy-2-methylpropanoyl)piperidin-4-yl)acetamide]
< 0.3 µM | O=C(NCC1CCN(C[C@@H]2CCCN2C(=O)CCC(F)(F)F)CC1)c1cc(F)cc(C(F)(F)F)c1 [Compound 426, (S)-3-fluoro-N-((1-((1-(4,4,4-trifluorobutanoyl)pyrrolidin-2-yl)methyl)piperidin-4-yl)methyl)-5-(trifluoromethyl)benzamide]
3.53 µM | O=C(NCC1CCN(CCNC(=O)C2CCCC2)CC1)c1cccc(C(F)(F)F)c1 [Compound 398, N-((1-(2-(cyclopentanecarboxamido)ethyl)piperidin-4-yl)methyl)-3-(trifluoromethyl)benzamide]
6.91 µM | CCS(=O)(=O)NC(CN1CCC(CC(=O)NC(c2cccc(F)c2)c2cccc(F)c2)CC1)C(C)(C)C (stereo not shown) [Compound 220, N-(bis(3-fluorophenyl)methyl)-2-(1-(2-(ethylsulfonamido)-3,3-dimethylbutyl)piperidin-4-yl)acetamide]
< 0.3 µM | CC(C)(CO)NC(=O)CN1CCC(CNC(=O)c2cc(C(F)(F)F)cc(C(F)(F)F)c2)CC1 [Compound 430, N-((1-(2-(1-hydroxy-2-methyl-propan-2-ylamino)-2-oxoethyl)piperidin-4-yl)methyl)-3,5-bis(trifluoromethyl)benzamide]
5.82 µM | CC(C)(C)C(N)CN1CCC(CC(=O)NC(c2cccc(F)c2)c2cccc(F)c2)CC1 (stereo not shown) [Compound 217, 2-(1-(2-amino-3,3-dimethylbutyl)piperidin-4-yl)-N-(bis(3-fluorophenyl)methyl)acetamide]
3.36 µM | O=C(Cc1cc(C(F)(F)F)cc(C(F)(F)F)c1)NCC1CCN(CCNC(=O)C2CCCC2)CC1 [Compound 408, N-(2-(4-((2-(3,5-bis(trifluoromethyl)phenyl)acetamido)methyl)piperidin-1-yl)ethyl)cyclopentanecarboxamide]
2.91 µM | COc1cc(F)cc(C(=O)NCC2CCN(CCNC(=O)C3CCCC3)CC2)c1 [Compound 396, N-((1-(2-(cyclopentanecarboxamido)ethyl)piperidin-4-yl)methyl)-3-fluoro-5-methoxybenzamide]
< 0.3 µM | CC(C)(C)NC(=O)CN1CCC(CNC(=O)C2(c3ccc(Cl)cc3)CCCC2)CC1 [Compound 428, N-((1-(2-(tert-buylamino)-2-oxoethyl)piperidin-4-yl)methyl)-1-(4-chlorophenyl)cyclopentanecarboxamide]
4.04 µM | O=C(NCC1CCN(C[C@@H]2CCCN2S(=O)(=O)CC2CC2)CC1)c1cc(F)cc(C(F)(F)F)c1 [Compound 421, (S)-N-((1-((1-(cyclopropylmethylsulfonyl)pyrrolidin-2-yl)methyl)piperidin-4-yl)methyl)-3-fluoro-5-(trifluoromethyl)benzamide]
2.17 µM | O=C(NCC1CCN(C[C@@H]2CCCN2S(=O)(=O)C2CC2)CC1)c1cc(F)cc(C(F)(F)F)c1 [Compound 418, (S)-N-((1-((1-(cyclopropylsulfonyl)pyrrolidin-2-yl)methyl)piperidin-4-yl)methyl)-3-fluoro-5-(trifluoromethyl) benzamide]
1.78 µM | O=C(NCC1CCN(CCNC(=O)C2CCCC2)CC1)c1cc(F)cc(Cl)c1 [Compound 397, 3-chloro-N-((1-(2-(cyclopentanecarboxamido)ethyl)piperidin-4-yl)methyl)-5-fluoro-benzamide]
1.11 µM | CCOc1cc(OCC)cc(C(=O)NCC2CCN(CCNC(=O)C3CCCC3)CC2)c1 [Compound 403, N-((1-(2-(cyclopentanecarboxamido)ethyl)piperidin-4-yl)methyl)-3,5-diethoxybenzamide]
< 0.3 µM | CC(C)(C)NC(=O)CN1CCC(CNC(=O)C2(c3ccccc3)CCCC2)CC1 [Compound 432, N-((1-(2-(tert-butylamino)-2-oxoethyl)piperidin-4-yl)methyl)-1-phenylcyclopentanecarboxamide]

Source: US8569344B2, “N-piperidinyl acetamide derivatives as calcium channel blockers” (Zalicus Pharmaceuticals Ltd., priority 2008, dated 2013)
